# Reference: patent US20220033397A1, “PHARMACEUTICAL COMPOUNDS AND THEIR USE AS INHIBITORS OF UBIQUITIN SPECIFIC PROTEASE 19 (USP19)” (ALMAC DISCOVERY LIMITED, priority 2018, published 2022)
# Biological target: T1, Full-length USP19 (Homo sapiens, UniProt O94966)
# T1 construct: Full-length USP19 was purchased from Boston Biochem (E-576); purchased Boston Biochem E-576
# T1 sequence (O94966 1-1318): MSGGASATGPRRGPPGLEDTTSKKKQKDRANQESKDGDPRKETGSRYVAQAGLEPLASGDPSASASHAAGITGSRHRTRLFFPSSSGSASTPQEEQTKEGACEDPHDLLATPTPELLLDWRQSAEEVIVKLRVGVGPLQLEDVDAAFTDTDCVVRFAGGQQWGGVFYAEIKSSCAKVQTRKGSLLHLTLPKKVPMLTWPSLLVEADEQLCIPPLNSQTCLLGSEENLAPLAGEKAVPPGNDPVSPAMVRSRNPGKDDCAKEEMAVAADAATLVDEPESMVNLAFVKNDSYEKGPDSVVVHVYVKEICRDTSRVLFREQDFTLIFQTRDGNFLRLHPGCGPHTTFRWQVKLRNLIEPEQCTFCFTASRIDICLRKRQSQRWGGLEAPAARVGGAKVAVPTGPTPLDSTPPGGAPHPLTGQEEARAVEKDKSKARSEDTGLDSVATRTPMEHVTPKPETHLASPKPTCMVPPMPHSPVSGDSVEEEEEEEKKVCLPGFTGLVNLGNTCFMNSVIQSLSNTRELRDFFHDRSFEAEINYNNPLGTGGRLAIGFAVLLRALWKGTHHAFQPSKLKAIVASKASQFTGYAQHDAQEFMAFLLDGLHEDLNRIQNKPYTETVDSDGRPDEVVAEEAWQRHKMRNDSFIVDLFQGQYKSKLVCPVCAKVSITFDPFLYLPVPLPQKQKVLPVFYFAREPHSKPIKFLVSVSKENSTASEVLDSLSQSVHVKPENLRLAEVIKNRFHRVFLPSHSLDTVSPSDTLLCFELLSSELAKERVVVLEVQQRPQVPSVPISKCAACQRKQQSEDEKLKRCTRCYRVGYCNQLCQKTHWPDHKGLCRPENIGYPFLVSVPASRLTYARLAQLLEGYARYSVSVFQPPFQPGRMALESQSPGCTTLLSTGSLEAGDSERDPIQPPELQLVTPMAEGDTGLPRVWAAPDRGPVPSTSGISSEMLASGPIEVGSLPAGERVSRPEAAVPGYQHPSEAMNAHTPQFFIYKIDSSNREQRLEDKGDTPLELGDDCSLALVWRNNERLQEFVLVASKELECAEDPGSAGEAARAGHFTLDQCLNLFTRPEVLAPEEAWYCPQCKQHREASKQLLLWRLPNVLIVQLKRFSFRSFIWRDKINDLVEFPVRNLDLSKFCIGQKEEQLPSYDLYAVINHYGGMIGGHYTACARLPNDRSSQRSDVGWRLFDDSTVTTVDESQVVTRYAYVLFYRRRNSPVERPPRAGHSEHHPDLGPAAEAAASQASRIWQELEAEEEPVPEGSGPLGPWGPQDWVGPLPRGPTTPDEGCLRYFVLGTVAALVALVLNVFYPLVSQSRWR
# Test: USP19 fluorescence polarisation (FP) homogeneous assay with Ubiquitin-Lys-TAMRA substrate
# Assay type: biochemical
# Conditions: 2.5 nM USP19, 30 min pre-incubation, average of at least two duplicate experiments
# Procedure, shortened: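 Full-length USP19 preincubated 30 min at RT with inhibitor (200 μM to 2 μM series, 8–18 points) before adding 500 nM Ubiquitin-Lys-TAMRA substrate.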
row,SMILES,IC50
1,"C[C@H](CC1CCCCC1)C(=O)N1CCC(O)(Cn2cnc3ccc(Cl)cc3c2=O)C2(CCCC2)C1 (stereo partly drawn) [Example 143, 6-Chloro-3-((7-((R)-3-cyclohexyl-2-methylpropanoyl)-10-hydroxy-7-azaspiro[4.5]decan-10-yl)methyl)quinazolin-4(3H)-one]",< 0.5 µM
2,"C[C@H](CC1CCCCC1)C(=O)N1CCC(O)(Cn2cnc3ccsc3c2=O)C2(CCCC2)C1 (stereo partly drawn) [Example 144, 3-((7-((R)-3-Cyclohexyl-2-methylpropanoyl)-10-hydroxy-7-azaspiro[4.5]decan-10-yl)methyl)thieno[3,2-d]pyrimidin-4(3H)-one]",0.5 to 5 µM
3,"C[C@H](CC1CCCCC1)C(=O)N1CCC(O)(Cn2cc(C(=O)N(C)C)c3ccccc3c2=O)C2(CCCC2)C1 (stereo partly drawn) [Example 145, 2-((7-((R)-3-Cyclohexyl-2-methylpropanoyl)-10-hydroxy-7-azaspiro[4.5]decan-10-yl)methyl)-N,N-dimethyl-1-oxo-1,2-dihydroisoquinoline-4-carboxamide]",0.5 to 5 µM
4,"COc1cc2ccn(CC3(O)CCN(C(=O)[C@H](C)CC4CCCCC4)CC34CCCC4)c(=O)c2cc1OC (stereo partly drawn) [Example 146, 2-((7-((R)-3-Cyclohexyl-2-methylpropanoyl)-10-hydroxy-7-azaspiro[4.5]decan-10-yl)methyl)-6,7-dimethoxyisoquinolin-1(2H)-one]",0.5 to 5 µM
5,"C[C@H](CC(F)(F)F)C(=O)N1CCC(O)(Cn2cnc3ccc(Cl)cc3c2=O)C2(CCCC2)C1 (stereo partly drawn) [Example 147, 6-Chloro-3-((10-hydroxy-7-((R)-4,4,4-trifluoro-2-methylbutanoyl)-7-azaspiro[4.5]decan-10-yl)methyl)quinazolin-4(3H)-one]",0.5 to 5 µM
6,"C[C@H](CC(F)(F)F)C(=O)N1CCC(O)(Cn2cnc3ccc(F)cc3c2=O)C2(CCCC2)C1 (stereo partly drawn) [Example 148, 6-Fluoro-3-((10-hydroxy-7-((R)-4,4,4-trifluoro-2-methylbutanoyl)-7-azaspiro[4.5]decan-10-yl)methyl)quinazolin-4(3H)-one]",5 to 50 µM
7,"C[C@H](CC(F)(F)F)C(=O)N1CCC(O)(Cn2cnc3cc(F)c(Cl)cc3c2=O)C2(CCCC2)C1 (stereo partly drawn) [Example 149, 6-Chloro-7-fluoro-3-((10-hydroxy-7-((R)-4,4,4-trifluoro-2-methylbutanoyl)-7-azaspiro[4.5]decan-10-yl)methyl)quinazolin-4(3H)-one]",5 to 50 µM
8,"C[C@H](CC1CCCCC1)C(=O)N1CCC(O)(Cn2ccc3nccnc3c2=O)C2(CCCC2)C1 (stereo partly drawn) [Example 150, 6-((7-((R)-3-Cyclohexyl-2-methylpropanoyl)-10-hydroxy-7-azaspiro[4.5]decan-10-yl)methyl)pyrido[3,4-b]pyrazin-5(6H)-one]",50 to 250 µM
9,"C[C@H](CC1CCCCC1)C(=O)N1CCC(O)(Cn2cnc3cc(F)c(F)cc3c2=O)C2(CCCC2)C1 (stereo partly drawn) [Example 151, 3-((7-((R)-3-Cyclohexyl-2-methylpropanoyl)-10-hydroxy-7-azaspiro[4.5]decan-10-yl)methyl)-6,7-difluoroquinazolin-4(3H)-one]",< 0.5 µM
10,"CCn1cc2c(=O)n(CC3(O)CCN(C(=O)[C@H](C)CC4CCCCC4)CC34CCCC4)cnc2n1 (stereo partly drawn) [Example 152, 5-((7-((R)-3-Cyclohexyl-2-methylpropanoyl)-10-hydroxy-7-azaspiro[4.5]decan-10-yl)methyl)-2-ethyl-2,5-dihydro-4H-pyrazolo[3,4-d]pyrimidin-4-one]",50 to 250 µM
11,"Cc1nc2cnccc2c(=O)n1CC1(O)CCN(C(=O)[C@H](C)CC2CCCCC2)CC12CCCC2 (stereo partly drawn) [Example 153, 3-((7-((R)-3-Cyclohexyl-2-methylpropanoyl)-10-hydroxy-7-azaspiro[4.5]decan-10-yl)methyl)-2-methylpyrido[3,4-d]pyrimidin-4(3H)-one]",0.5 to 5 µM
12,"C[C@H](CC1CCCCC1)C(=O)N1CCC(O)(Cn2cnc3ccc(F)cc3c2=O)C2(CCCC2)C1 (stereo partly drawn) [Example 154, 3-((7-((R)-3-Cyclohexyl-2-methylpropanoyl)-10-hydroxy-7-azaspiro[4.5]decan-10-yl)methyl)-6-fluoroquinazolin-4(3H)-one]",< 0.5 µM
13,"C[C@H](CC1CCCCC1)C(=O)N1CCC(O)(Cn2cnc3cc(F)c(Cl)cc3c2=O)C2(CCCC2)C1 (stereo partly drawn) [Example 155, 6-Chloro-3-((7-((R)-3-cyclohexyl-2-methylpropanoyl)-10-hydroxy-7-azaspiro[4.5]decan-10-yl)methyl)-7-fluoroquinazolin-4(3H)-one]",< 0.5 µM
14,"C[C@H](CC(F)(F)F)C(=O)N1CCC(O)(Cn2cnc3cc(F)ccc3c2=O)C2(CCCC2)C1 (stereo partly drawn) [Example 156, 7-Fluoro-3-((10-hydroxy-7-((R)-4,4,4-trifluoro-2-methylbutanoyl)-7-azaspiro[4.5]decan-10-yl)methyl)quinazolin-4(3H)-one]",5 to 50 µM
15,"C[C@H](CC1CCCCC1)C(=O)N1CCC(O)(Cn2cnc3ccncc3c2=O)C2(CCCC2)C1 (stereo partly drawn) [Example 157, 3-((7-((R)-3-Cyclohexyl-2-methylpropanoyl)-10-hydroxy-7-azaspiro[4.5]decan-10-yl)methyl)pyrido[4,3-d]pyrimidin-4(3H)-one]",0.5 to 5 µM
16,"C[C@H](CC1CCCCC1)C(=O)N1CCC(O)(Cn2ccc3ncncc3c2=O)C2(CCCC2)C1 (stereo partly drawn) [Example 158, 6-((7-((R)-3-Cyclohexyl-2-methylpropanoyl)-10-hydroxy-7-azaspiro[4.5]decan-10-yl)methyl)pyrido[4,3-d]pyrimidin-5(6H)-one]",0.5 to 5 µM
17,"C[C@H](CC(F)(F)F)C(=O)N1CCC(O)(Cn2ccc3ncncc3c2=O)C2(CCCC2)C1 (stereo partly drawn) [Example 159, 6-((10-Hydroxy-7-((R)-4,4,4-trifluoro-2-methylbutanoyl)-7-azaspiro[4.5]decan-10-yl)methyl)pyrido[4,3-d]pyrimidin-5(6H)-one]",5 to 50 µM
18,"CSc1ncc2c(=O)n(CC3(O)CCN(C(=O)[C@H](C)CC4CCCCC4)CC34CCCC4)cnc2n1 (stereo partly drawn) [Example 160, 3-((7-((R)-3-Cyclohexyl-2-methylpropanoyl)-10-hydroxy-7-azaspiro[4.5]decan-10-yl)methyl)-7-(methylthio)pyrimido[4,5-d]pyrimidin-4(3H)-one]",< 0.5 µM
19,"CSc1ncc2c(=O)n(CC3(O)CCN(C(=O)[C@H](C)CC(F)(F)F)CC34CCCC4)cnc2n1 (stereo partly drawn) [Example 161, 3-((10-Hydroxy-7-((R)-4,4,4-trifluoro-2-methylbutanoyl)-7-azaspiro[4.5]decan-10-yl)methyl)-7-(methylthio)pyrimido[4,5-d]pyrimidin-4(3H)-one]",0.5 to 5 µM
20,"C[C@H](CC(F)(F)F)C(=O)N1CCC(O)(Cn2cnc3nc(N4CCOCC4)ncc3c2=O)C2(CCCC2)C1 (stereo partly drawn) [Example 162, 3-((10-Hydroxy-7-((R)-4,4,4-trifluoro-2-methylbutanoyl)-7-azaspiro[4.5]decan-10-yl)methyl)-7-morpholinopyrimido[4,5-d]pyrimidin-4(3H)-one]",0.5 to 5 µM
21,"C[C@H](CC(F)(F)F)C(=O)N1CCC(O)(Cn2cnc3nc(N4CCN(C)CC4)ncc3c2=O)C2(CCCC2)C1 (stereo partly drawn) [Example 163, 3-((10-Hydroxy-7-((R)-4,44-trifluoro-2-methylbutanoyl)-7-azaspiro[4.5]decan-10-yl)methyl)-7-(4-methylpiperazin-1-yl)pyrimido[4,5-d]pyrimidin-4(3H)-one]",0.5 to 5 µM
22,"O=C(N1CCC(O)(Cn2cnc3ccc(F)cc3c2=O)C2(CCCC2)C1)N1CCOC[C@H]1c1ccccc1 (stereo partly drawn) [Example 164, 6-Fluoro-3-((10-Hydroxy-7-((R)-3-phenylmorpholine-4-carbonyl)-7-azaspiro[4.5]decan-10-yl)methyl)quinazolin-4(3H)-one]",< 0.5 µM
23,"O=C(N1CCC(O)(Cn2cnc3cc(F)c(F)cc3c2=O)C2(CCCC2)C1)N1CCOC[C@H]1c1ccccc1 (stereo partly drawn) [Example 165, 6,7-Difluoro-3-((10-hydroxy-7-((R)-3-phenylmorpholine-4-carbonyl)-7-azaspiro[4.5]decan-10-yl)methyl)quinazolin-4(3H)-one]",< 0.5 µM
24,"O=C(N1CCC(O)(Cn2ccc3ccncc3c2=O)C2(CCCC2)C1)N1CCOC[C@H]1c1ccccc1 (stereo partly drawn) [Example 166, 2-((10-Hydroxy-7-((R)-3-phenylmorpholine-4-carbonyl)-7-azaspiro[4.5]decan-10-yl)methyl)-2,7-naphthyridin-1(2H)-one]",0.5 to 5 µM
